One assay addresses T1, BRD4-BD1 (Homo sapiens, UniProt O60885).
T1 construct: made in house; host or cells: T7 phage grown in an E. coli host derived from BL21
Briefly: bromoKdELECT assay for binding affinity to BRD4-BD1. The settings on record: Table 6. How it is done: Compounds were tested using a bromoKdELECT assay. T7 phage strains displaying bromodomains were grown in parallel in 24-well blocks in an E. coli host derived from the BL21 strain. E. coli were grown to log-phase and infected with T7 phage from a frozen stock (multiplicity of infection=0.4) and incubated with shaking at 32° C. until lysis (90-150 minutes). The lysates were centrifuged (5,000×g) and filtered (0.2 μm) to remove cell debris. Streptavidin-coated magnetic beads were treated with biotinylated small molecule or acetylated peptide ligands for 30 minutes at room temperature to generate affinity resins for bromodomain assays. The liganded beads were blocked with excess biotin and washed with blocking buffer (SeaBlock (Pierce), 1% BSA, 0.05% Tween 20, 1 mM DTT) to remove unbound ligand and to reduce nonspecific phage binding. Binding reactions were assembled by combining bromodomains, liganded affinity beads, and test compounds in 1× binding buffer (17% SeaBlock, 0.33×PBS, 0.04% Tween 20, 0.02% BSA, 0.004% Sodium azide, 7.4 mM DTT). Test compounds were prepared as 1000× stocks in 100% DMSO. Kds were determined using an 11-point 3-fold compound dilution series with one DMSO control point. All compounds for Kd measurements are distributed by acoustic transfer (non-contact dispensing) in 100% DMSO. The compounds were then diluted directly into the assays such that the final concentration of DMSO was 0.09%. All reactions performed in polypropylene 384-well plates. Each was a final volume of 0.02 ml. The assay plates were incubated at room temperature with shaking for 1 hour and the affinity beads were washed with wash buffer (1×PBS, 0.05% Tween 20). The beads were then resuspended in elution buffer (1×PBS, 0.05% Tween […] non-biotinylated affinity ligand) and incubated at room temperature with shaking for 30 minutes. The bromodomain concentration in the eluates was measured by qPCR.

Assay [1] in a line: Cellular growth inhibition, T-Rex 293 SC cells with doxycycline (progesterone receptor isoform B induced), Example 45. It is filed as cell-based. The settings on record: progesterone receptor isoform B induced with 10 ng/mL doxycycline, 72 hours, CellTiter-Glo 2.0, Table 11. How it is done:
(§1) The following types of cells were prepared for this experiment: (i) a T-Rex 293 cell line having increased expression of progesterone receptor isoform B protein due to exposure to doxycycline and (ii) a T-Rex 293 cell line lacking increased expression of progesterone receptor isoform B protein. Ability of the test compounds to inhibit proliferation of the foregoing cell types was evaluated according to the procedures set forth below.
(§2) The doxycycline-inducible progesterone receptor isoform B protein expressing cell line was established using the following protocol: T-Rex 293 cells were purchased from Invitrogen (Cat #R71007) and transfected using Lipofectamine 2000 with the wild-type progesterone receptor B protein sequence cloned into the pcDNA4/TO vector. Transfected cells were selected using 400 μg/mL Zeocin (Invitrogen Cat #R25001). Following selection, single clones were raised and maintained in Dulbecco's Modified Eagle Medium (DMEM) supplemented with 10% w/w Tetracycline-free fetal bovine serum (FBS) and 250 μg/mL Zeocin. Clones were analyzed for expression of progesterone receptor isoform B protein in the presence and absence of 10 ng/mL doxycycline (Sigma Cat #D9891), and a single doxycycline-inducible clone (hereinafter “SC”) was selected for use in downstream assays.
(§3) The SC cells were seeded on poly-D-lysine coated, black clear-bottom 384-well plates at 2500/well, in 25 μL Phenol Red Free Dulbecco's Modified Eagle Medium (DMEM) supplemented with 10% w/w charcoal-dextran treated fetal bovine serum (FBS) and 1% w/w pen-strep, with or without 10 ng/mL doxycycline. Pen-Strep is a commercially available mixture of penicillin G and streptomycin, which is used in mammalian cell culture media to prevent bacterial contamination. Phenol Red Free Dulbecco's Modified Eagle Medium (DMEM) supplemented with 10% w/w charcoal-dextran treated fetal bovine serum (FBS) and 1% w/w pen-strep, with or without 10 ng/mL doxycycline is herein referred to as Treatment Medium. Following seeding of cells in the plates, the plates were spun at 300×g for 30 seconds, then equilibrated to room temperature for 30 minutes, and then deposited in a humidified tissue culture incubator maintained at 37° C. with 5% CO2.
(§4) At 24 hours after seeding of the cells, dilutions of test compound were prepared in DMSO and dissolved in Treatment Medium, to achieve a final DMSO concentration of 0.5% w/w, thereby providing the Test Compound Solution. A 25 μL aliquot of the Test Compound Solution was added to cells in the well plates. An equal volume of a solution containing DMSO and Treatment Medium was used as a negative control. Following treatment of cells with Test Compound Solution or said equal volume of a solution containing DMSO and Treatment Medium, the plates were spun at 300×g for 30 seconds, and then left in an incubator for 72 hours.
(§5) At the end of the treatment duration, cell viability was quantified with CellTiter-Glo 2.0 reagent (Promega Cat #G9243). For this purpose, plates were equilibrated to room temperature for 30 minutes, and then 25 μL of CellTiter-Glo 2.0 reagent was added to cells in the plate wells. Plates were then agitated on a shaker for two minutes at 500 rpm and subsequently incubated at room temperature for 10 minutes. Following incubation, the plates were spun at 3000×g for 30 seconds, then sealed with an optical adhesive cover, and luminescence readings were measured with an EnVision Plate Reader (Perkin Elmer).
(§6) Data was normalized using zero luminescence for baseline. A four-parameter non-linear regression curve fit was applied to dose-response data in GraphPad Prism data analysis software to determine the half-maximal growth inhibitory concentration (GI50) for each test compound.

Assay [2] has as its system T-Rex 293 cell line SC cells lacking increased expression of progesterone receptor isoform B protein. Briefly: Cellular growth inhibition, T-Rex 293 SC cells without doxycycline, Example 45. It is filed as cell-based. The settings on record: T-Rex 293 SC cells not exposed to doxycycline, 72 hours treatment, CellTiter-Glo 2.0. How it is done: as §1, §2, §3, §4, §5, §6
Background: ATP-based viability assays read luminescence as a measure of living cells.

By Kd is commonly meant the equilibrium constant for the complex coming apart. High values mean a looser complex, low ones a tighter complex. One may read the GI50 as the concentration at which growth is held to half of that of the control. A high value points to less potent growth inhibition.

At BRD4-BD1, `Cc1sc2c(c1C)C(c1ccc(Cl)cc1)=N[C@@H](CC(=O)NCCN(C)c1ncc(C(=O)N[C@H]3C(C)(C)[C@H](Oc4ccc(C#N)c(Cl)c4)C3(C)C)cn1)c1nnc(C)n1-2` [Compound I-1, N-[3-(3-chloro-4-cyano-phenoxy)-2,2,4,4-tetramethyl-cyclobutyl]-2-[2-[[2-[(9S)-7-(4-chlorophenyl)-4,5,13-trimethyl-3-thia-1,8,11,12-tetrazatricyclo[8.3.0.02,6]trideca-2(6),4,7,10,12-pentaen-9-yl]acetyl]amino]ethyl-methyl-amino]pyrimidine-5-carboxamide] displayed a dissociation constant (Kd) of 0.05 to 0.5 µM. Regarding `Cc1sc2c(c1C)C(c1ccc(Cl)cc1)=N[C@@H](CC(=O)NCCCN1CCN(CCCOC3CCN(c4ncc(C(=O)N[C@H]5C(C)(C)[C@H](Oc6ccc(C#N)c(Cl)c6)C5(C)C)cn4)CC3)CC1)c1nnc(C)n1-2` [Compound I-10], the Kd on BRD4-BD1 was 0.05 to 0.5 µM. For `Cc1sc2c(c1C)C(c1ccc(Cl)cc1)=N[C@@H](CC(=O)NCCOCCOCCOCCOC1CCN(c3ncc(C(=O)N[C@H]4C(C)(C)[C@H](Oc5ccc(C#N)c(Cl)c5)C4(C)C)cn3)CC1)c1nnc(C)n1-2` [Compound I-11], on BRD4-BD1, the Kd fell in the range of 0.5 to 2.5 µM. In turn, `Cc1sc2c(c1C)C(c1ccc(Cl)cc1)=N[C@H](CC(=O)NCCOCCOCCOCCOC1CCN(c3ncc(C(=O)N[C@H]4C(C)(C)[C@H](Oc5ccc(C#N)c(Cl)c5)C4(C)C)cn3)CC1)c1nnc(C)n1-2` [Compound I-13] returned a dissociation constant Kd at BRD4-BD1 greater than 2.5 µM. Still for that read-out and setting: for `Cc1sc2c(c1C)C(c1ccc(Cl)cc1)=N[C@@H](CC(=O)NCCOCCOCCOCC1CCN(c3ncc(C(=O)N[C@H]4C(C)(C)[C@H](Oc5ccc(C#N)c(Cl)c5)C4(C)C)cn3)CC1)c1nnc(C)n1-2` [Compound I-17] the value was 0.05 to 0.5 µM. At BRD4-BD1, `Cc1sc2c(c1C)C(c1ccc(Cl)cc1)=N[C@@H](CC(=O)NCCOCCOCCOCC1CN(c3ncc(C(=O)N[C@H]4C(C)(C)[C@H](Oc5ccc(C#N)c(Cl)c5)C4(C)C)cn3)C1)c1nnc(C)n1-2` [Compound I-18] displayed a Kd of 0.05 to 0.5 µM. Same read-out and setting: for `Cc1sc2c(c1C)C(c1ccc(Cl)cc1)=N[C@H](CC(=O)NCCOCCOCCOCCOCCN(C)c1ncc(C(=O)N[C@H]3C(C)(C)[C@H](Oc4ccc(C#N)c(Cl)c4)C3(C)C)cn1)c1nnc(C)n1-2` [Compound I-19] the value was greater than 2.5 µM.

Molecule `Cc1sc2c(c1C)C(c1ccc(Cl)cc1)=N[C@@H](CC(=O)NCCCCCCCOC1CCN(c3ncc(C(=O)N[C@H]4C(C)(C)[C@H](Oc5ccc(C#N)c(Cl)c5)C4(C)C)cn3)CC1)c1nnc(C)n1-2` [Compound I-24] yielded a Kd at BRD4-BD1 greater than 2.5 µM. `Cc1sc2c(c1C)C(c1ccc(Cl)cc1)=N[C@@H](CC(=O)NCCCCOCCOC1CCN(c3ncc(C(=O)N[C@H]4C(C)(C)[C@H](Oc5ccc(C#N)c(Cl)c5)C4(C)C)cn3)CC1)c1nnc(C)n1-2` [Compound I-28] returned a Kd at BRD4-BD1 of 0.5 to 2.5 µM. At BRD4-BD1, `Cc1sc2c(c1C)C(c1ccc(Cl)cc1)=N[C@@H](CC(=O)NCCCN1CCN(CC3CCN(c4ncc(C(=O)N[C@H]5C(C)(C)[C@H](Oc6ccc(C#N)c(Cl)c6)C5(C)C)cn4)CC3)CC1)c1nnc(C)n1-2` [Compound I-36, N-((1r,3r)-3-(3-chloro-4-cyanophenoxy)-2,2,4,4-tetramethylcyclobutyl)-2-(4-((4-(3-(2-((S)-4-(4-chlorophenyl)-2,3,9-trimethyl-6H-thieno[3,2-f][1,2,4]triazolo[4,3-a][1,4]diazepin-6-yl)acetamido)propyl)piperazin-1-yl)methyl)piperidin-1-yl)pyrimidine-5-carboxamide] gave a Kd of 0.05 to 0.5 µM. On to `CCN(C)C(=O)C[C@@H]1N=C(c2ccc(OCCOC3CCN(c4ncc(C(=O)N[C@H]5C(C)(C)[C@H](Oc6ccc(C#N)c(Cl)c6)C5(C)C)cn4)CC3)cc2)c2c(sc(C)c2C)-n2c(C)nnc21` [Compound I-66], for which the Kd at BRD4-BD1 lay within 0.5 to 2.5 µM.

Turning to `CCNC(=O)C[C@@H]1N=C(c2ccc(OCC3CN(c4ncc(C(=O)N[C@H]5C(C)(C)[C@H](Oc6ccc(C#N)c(Cl)c6)C5(C)C)cn4)C3)cc2)c2c(sc(C)c2C)-n2c(C)nnc21` [Compound I-71], on BRD4-BD1, the Kd was in the range of 0.05 to 0.5 µM. Take `CCNC(=O)C[C@@H]1N=C(c2ccc(OCCOC3CCN(c4ncc(C(=O)N[C@H]5C(C)(C)[C@H](Oc6ccc(C#N)c(Cl)c6)C5(C)C)cn4)CC3)c(F)c2F)c2c(sc(C)c2C)-n2c(C)nnc21` [Compound I-73]: the dissociation constant Kd on BRD4-BD1 was in the range of 0.5 to 2.5 µM.

In turn, `CCNC(=O)C[C@@H]1N=C(c2ccc(OCCOC3CCN(c4ncc(C(=O)N[C@H]5C(C)(C)[C@H](Oc6ccc(C#N)c(Cl)c6)C5(C)C)cn4)CC3)cc2F)c2c(sc(C)c2C)-n2c(C)nnc21` [Compound I-75] came in with a dissociation constant Kd at BRD4-BD1 of 0.5 to 2.5 µM.

In turn, `CCNC(=O)C[C@@H]1N=C(c2ccc(OCCOC3CCN(c4ncc(C(=O)N[C@H]5C(C)(C)[C@H](Oc6ccc(C#N)c(Cl)c6)C5(C)C)cn4)CC3)c(F)c2)c2c(sc(C)c2C)-n2c(C)nnc21` [Compound I-76] yielded a Kd at BRD4-BD1 of 0.5 to 2.5 µM. As for `Cc1sc2c(c1C)C(c1ccc(CCC3CC4(CCCN(c5ncc(C(=O)N[C@H]6C(C)(C)[C@H](Oc7ccc(C#N)c(Cl)c7)C6(C)C)cn5)C4)C3)cc1)=N[C@@H](Cc1ncco1)c1nnc(C)n1-2` [Compound I-241], the values for the GI50 in assay [1] and in assay [2] were less than 0.5 µM and 0.5 to 1.5 µM, respectively. For `Cc1sc2c(c1C)C(c1ccc(C#CC3CC4(CCN(c5ncc(C(=O)N[C@H]6C(C)(C)[C@H](Oc7ccc(C#N)c(Cl)c7)C6(C)C)cn5)CC4)C3)cc1)=N[C@@H](Cc1ncco1)c1nnc(C)n1-2` [Compound I-267], the figures for the concentration for 50% growth inhibition (GI50) in assay [1] and in assay [2] were less than 0.5 µM and 0.5 to 1.5 µM, respectively. Taken in the same sequence, the figures for `Cc1sc2c(c1C)C(c1ccc(N3CC(CC4CCN(c5ncc(C(=O)N[C@H]6C(C)(C)[C@H](Oc7ccc(C#N)c(Cl)c7)C6(C)C)cn5)CC4)C3)cc1)=N[C@@H](C)c1nnc(C)n1-2` [Compound I-270] were less than 0.5 µM and 0.5 to 1.5 µM. With `Cc1sc2c(c1C)C(c1ccc(N3CC(C4CCN(c5ncc(C(=O)N[C@H]6C(C)(C)[C@H](Oc7ccc(C#N)c(Cl)c7)C6(C)C)cn5)CC4)C3)cc1)=N[C@@H](C)c1nnc(C)n1-2` [Compound I-271], the GI50 in assay [1] is less than 0.5 µM; in assay [2], 0.5 to 1.5 µM. As to `Cc1sc2c(c1C)C(c1ccc(OC3CC4(C3)CC3(CCN(c5ncc(C(=O)N[C@H]6C(C)(C)[C@H](Oc7ccc(C#N)c(Cl)c7)C6(C)C)cn5)CC3)C4)cc1)=N[C@@H](Cc1ncco1)c1nnc(C)n1-2` [Compound I-283], the 50% growth inhibitory concentration (GI50) in assay [1] is less than 0.5 µM; in assay [2], greater than 3 µM.

The values are drawn from patent publication US20260062422A1 (Halda Therapeutics OpCo, Inc., priority 2022, published 2026).
